Experimental findings from ChEMBL document CHEMBL4765455, “Design, synthesis, and biological evaluations of novel 3-amino-4-ethynyl indazole derivatives as Bcr-Abl kinase inhibitors with potent cellular antileukemic activity” (Eur J Med Chem, 2020) are described below.

Molecules are shown by their SMILES. pIC50: −log10 of the molar value. Activity calls are given as the source filed them. The calls are words filed in the database; no cut-off is given here. A value given as a limit tells only on which side of the number the result lay.

The target in data set [1] is Bcr/Abl fusion protein (Homo sapiens, UniProt P00519, T315I). Kind of data set: Inhibition of BCR-ABL T315I mutant (unknown origin) incubated for 40 mins in presence of [gamma33P]ATP by scintillation method. It counts as protein assay.
The target of data set [2] is Bcr/Abl fusion protein (Homo sapiens, UniProt P00519). Briefly: Inhibition of wild type BCR-ABL (unknown origin) incubated for 40 mins in presence of [gamma33P]ATP by scintillation method. It counts as protein assay.
Data set [3] is described as follows: Antiproliferative activity against human L132 cells assessed as cell growth inhibition incubated for 72 hrs by MTT assay. It counts as cell-based. Background: Formazan colour is commonly taken as a measure of viable cells.
Data set [4] has as its system K562. Kind of data set: Antiproliferative activity against human K562 cells assessed as cell growth inhibition incubated for 72 hrs by MTT assay. It counts as functional.
The subject of data set [5] is HL-60(TB). Briefly: Antiproliferative activity against human HL-60(TB) cells assessed as cell growth inhibition at 10 uM measured after 48 hrs by SRB assay relative to control. It counts as functional. For orientation: The SRB assay estimates cell density from bound dye.
The subject of data set [6] is MOLT-4. Kind of data set: Antiproliferative activity against human MOLT-4 cells assessed as cell growth inhibition at 10 uM measured after 48 hrs by SRB assay relative to control. It counts as functional. The following applies: read-out: GI.
The test system of data set [7] is RPMI-8226. Kind of data set: Antiproliferative activity against human RPMI-8226 cells assessed as cell growth inhibition at 10 uM measured after 48 hrs by SRB assay relative to control. It counts as functional. To be noted: read-out: GI.
Data set [8] concerns RPMI-8226. Briefly: Antiproliferative activity against human RPMI-8226 cells assessed as cell growth inhibition measured after 48 hrs by SRB assay. It counts as functional.
The test system of data set [9] is CCRF-CEM. Kind of data set: Antiproliferative activity against human CCRF-CEM cells assessed as cell growth inhibition measured after 48 hrs by SRB assay. It counts as functional.
The test system of data set [10] is SR. Kind of data set: Antiproliferative activity against human SR cells assessed as cell growth inhibition at 10 uM measured after 48 hrs by SRB assay relative to control. It counts as functional. To be noted: read-out: GI.
Data set [11] has as its system K562. Briefly: Antiproliferative activity against human K562 cells assessed as cell growth inhibition at 10 uM measured after 48 hrs by SRB assay relative to control. It counts as functional. To be noted: read-out: GI.
Data set [12] relates to MOLT-4. Kind of data set: Antiproliferative activity against human MOLT-4 cells assessed as cell growth inhibition measured after 48 hrs by SRB assay. It counts as functional.
Data set [13] relates to SR. Briefly: Antiproliferative activity against human SR cells assessed as cell growth inhibition measured after 48 hrs by SRB assay. It counts as functional.
For data set [14], the system named is K562. Kind of data set: Antiproliferative activity against human K562 cells assessed as cell growth inhibition measured after 48 hrs by SRB assay. It counts as functional.
The test system of data set [15] is HL-60(TB). Kind of data set: Antiproliferative activity against human HL-60(TB) cells assessed as cell growth inhibition measured after 48 hrs by SRB assay. It counts as functional.
Data set [16] can be described thus: Selectivity index, ratio of GI50 for human HL60(TB) cells to GI50 for human K562 cells. It counts as functional.
The test system of data set [17] is CCRF-CEM. Kind of data set: Antiproliferative activity against human CCRF-CEM cells assessed as cell growth inhibition at 10 uM measured after 48 hrs by SRB assay relative to control. The following applies: read-out: GI. It counts as functional.

As to `Nc1n[nH]c2cccc(C#Cc3cccc(C(=O)Nc4ccc(CN5CCOCC5)c(C(F)(F)F)c4)c3)c12`, the negative logarithm of the IC50 (pIC50) at Bcr/Abl fusion protein [1] was 5.79; at Bcr/Abl fusion protein [2], 6.71. In addition, in data set [3], the 50% growth inhibitory concentration (GI50) at 72 h was over 100000 nM. Besides, in the data set on K562 [4], the GI50 is 570 nM.
With `CN1CCN(c2ccc(C(=O)Nc3cccc(C#Cc4cccc5[nH]nc(N)c45)c3)cc2C(F)(F)F)CC1`, the GI50 at 72 h in data set [3] is over 10000 nM. For the same compound, in the data set with K562 [4], the concentration for 50% growth inhibition (GI50) worked out at 1480 nM.
On to `Nc1n[nH]c2cccc(C#Cc3cccc(NC(=O)c4cc(N5CCOCC5)cc(C(F)(F)F)c4)c3)c12`, for which the pIC50 on Bcr/Abl fusion protein [1] was 5.32. In data set [3], the 50% growth inhibitory concentration (GI50) at 72 h was over 100000 nM. The concentration for 50% growth inhibition (GI50) in the data set on K562 [4] stood at 2210 nM.
As to `Cc1cn(-c2cc(NC(=O)c3cccc(C#Cc4cccc5[nH]nc(N)c45)c3)cc(C(F)(F)F)c2)cn1`, the inhibition of growth at 10 µM in the data set on HL-60(TB) [5] (read-out: GI) turned out to be 87.5%; with MOLT-4 [6], 79.3%; in the data set on RPMI-8226 [7], 86.2%; with SR [10], 71.7%; with K562 [11], 96.8%; in the data set with CCRF-CEM [17], 85%. Besides, the pIC50 at Bcr/Abl fusion protein [1] was 6.08; on Bcr/Abl fusion protein [2], 7.59. Moreover, the GI50 in the data set on RPMI-8226 [8] is 4540 nM; in the data set on CCRF-CEM [9], 4880 nM; in the data set with MOLT-4 [12], 3840 nM; in the data set on SR [13], 5060 nM; in the data set with K562 [14], under 10 nM; in the data set with HL-60(TB) [15] it was 3220 nM. The 50% growth inhibitory concentration (GI50) in the data set on K562 [4] came out at 150 nM. In addition, the GI50 at 72 h in [3] amounted to 12900 nM. Besides, the RatioGI50 in data set [16] was determined as 322.
Consider `Nc1n[nH]c2cccc(C#Cc3cccc(NC(=O)c4cc(C(F)(F)F)cc(C(F)(F)F)c4)c3)c12`, for which, on Bcr/Abl fusion protein [1], the negative logarithm of the IC50 (pIC50) was under 4.70. In addition, the GI50 in the data set with K562 [4] was over 10000 nM.
In the case of `Nc1n[nH]c2cccc(C#Cc3cccc(NC(=O)c4cccc(C(F)(F)F)c4)c3)c12`, the negative-log IC50 (pIC50) at Bcr/Abl fusion protein [1] is 5.59. Also, the GI50 at 72 h in data set [3] is over 100000 nM. Moreover, the concentration for 50% growth inhibition (GI50) in the data set with K562 [4] stood at 1540 nM.
On to `Nc1n[nH]c2cccc(C#Cc3cccc(C(=O)Nc4ccc(Cl)c(C(F)(F)F)c4)c3)c12`, for which, on Bcr/Abl fusion protein [1], the pIC50 is 5.85. Further, the GI50 at 72 h in [3] was over 100000 nM. Moreover, in the data set with K562 [4], the 50% growth inhibitory concentration (GI50) came out at 3810 nM.
For `Cc1cn(-c2cc(C(=O)Nc3cccc(C#Cc4cccc5[nH]nc(N)c45)c3)cc(C(F)(F)F)c2)cn1`, the pIC50 is 5.84 at Bcr/Abl fusion protein [1] and 7.81 at Bcr/Abl fusion protein [2]. In addition, in data set [3], the GI50 at 72 h worked out at 10900 nM. Also, the 50% growth inhibitory concentration (GI50) in the data set with K562 [4] worked out at 70 nM.
As for `Nc1n[nH]c2cccc(C#Cc3cccc(C(=O)Nc4cccc(C(F)(F)F)c4)c3)c12`, the negative logarithm of the IC50 (pIC50) at Bcr/Abl fusion protein [1] is 5.65. Moreover, the GI50 at 72 h in [3] turned out to be 15300 nM. The GI50 in the data set on K562 [4] was 3470 nM.
Take `Cc1ccc(C(=O)Nc2cccc(C#Cc3cccc4[nH]nc(N)c34)c2)cc1C(F)(F)F`: the concentration for 50% growth inhibition (GI50) at 72 h in [3] is over 100000 nM. The concentration for 50% growth inhibition (GI50) in the data set with K562 [4] turned out to be 2350 nM.
For `Nc1n[nH]c2cccc(C#Cc3cccc(NC(=O)c4cc(F)cc(C(F)(F)F)c4)c3)c12`, the pIC50 at Bcr/Abl fusion protein [1] was 5.28. Besides, in data set [3], the GI50 at 72 h is over 100000 nM. Moreover, the concentration for 50% growth inhibition (GI50) in the data set on K562 [4] turned out to be 2140 nM.
Take `Cc1ccc(NC(=O)c2ccc(CN3CCN(C)CC3)cc2)cc1Nc1nccc(-c2cccnc2)n1` [IMATINIB]: in the data set on HL-60(TB) [5], the “growth inhibition (GI)” value was “inactive”. Also, the inhibition of growth at 10 µM in the data set with MOLT-4 [6] was determined as 18%; in the data set on RPMI-8226 [7], 12.6%; in the data set with SR [10] it was 14.6%; in the data set with CCRF-CEM [17], 6.6%. In addition, the GI50 at 72 h in [3] is over 10000 nM. Moreover, the concentration for 50% growth inhibition (GI50) in the data set on K562 [14] came to 20 nM; in the data set on K562 [4], 800 nM.
For `Nc1n[nH]c2cccc(C#Cc3cccc(C(=O)Nc4cc(C(F)(F)F)cc(C(F)(F)F)c4)c3)c12`, the negative-log IC50 (pIC50) at Bcr/Abl fusion protein [1] is 5.83. Also, in data set [3], the concentration for 50% growth inhibition (GI50) at 72 h was over 100000 nM. The GI50 in the data set on K562 [4] is 520 nM.
As for `CN1CCN(Cc2cc(NC(=O)c3cccc(C#Cc4cccc5[nH]nc(N)c45)c3)cc(C(F)(F)F)c2)CC1`, the negative logarithm of the IC50 (pIC50) at Bcr/Abl fusion protein [1] is 5.79; on Bcr/Abl fusion protein [2] it was 7.25. In [3], the GI50 at 72 h was over 100000 nM. Also, the GI50 with K562 [4] amounted to 300 nM.
With `Nc1n[nH]c2cccc(C#Cc3cccc(C(=O)Nc4cc(CN5CCOCC5)cc(C(F)(F)F)c4)c3)c12`, the pIC50 on Bcr/Abl fusion protein [1] is 5.60; on Bcr/Abl fusion protein [2], 6.24. Also, the concentration for 50% growth inhibition (GI50) at 72 h in [3] was 16700 nM. Moreover, the 50% growth inhibitory concentration (GI50) with K562 [4] was found to be 830 nM.

As a reminder, the pIC50 is −log10 of the IC50, conventionally taken in molar units. In general, GI50 refers to the concentration at which growth is held to half of that of the control.
